# Data: patent US20250011288A1 (BRISTOL-MYERS SQUIBB COMPANY, priority 2021, published 2025)
# Target: T1, human RXFP1 (Homo sapiens, UniProt Q9HBX9)
# T1 construct: expressed in transfected cells
# T1 sequence (Q9HBX9 1-757): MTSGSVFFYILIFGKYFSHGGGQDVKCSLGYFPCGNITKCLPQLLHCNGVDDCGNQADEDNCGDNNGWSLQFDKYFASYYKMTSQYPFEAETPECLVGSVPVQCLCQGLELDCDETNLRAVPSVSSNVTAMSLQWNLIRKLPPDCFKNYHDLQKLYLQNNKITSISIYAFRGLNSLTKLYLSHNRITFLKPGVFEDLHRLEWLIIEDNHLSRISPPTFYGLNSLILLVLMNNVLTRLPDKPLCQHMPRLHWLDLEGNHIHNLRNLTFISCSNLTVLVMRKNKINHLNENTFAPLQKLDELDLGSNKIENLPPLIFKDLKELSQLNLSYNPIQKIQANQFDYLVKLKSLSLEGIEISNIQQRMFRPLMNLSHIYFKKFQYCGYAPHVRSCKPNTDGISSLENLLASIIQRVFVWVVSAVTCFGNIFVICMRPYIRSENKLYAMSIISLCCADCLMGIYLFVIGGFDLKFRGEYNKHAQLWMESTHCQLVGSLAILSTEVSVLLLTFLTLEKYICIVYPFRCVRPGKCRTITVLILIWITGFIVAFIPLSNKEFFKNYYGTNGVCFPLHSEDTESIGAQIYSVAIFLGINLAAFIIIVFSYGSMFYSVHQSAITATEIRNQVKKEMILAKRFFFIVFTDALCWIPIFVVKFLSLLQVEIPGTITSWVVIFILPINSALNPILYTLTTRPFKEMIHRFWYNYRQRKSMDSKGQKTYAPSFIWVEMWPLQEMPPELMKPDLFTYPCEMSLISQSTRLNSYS
# Test: human RXFP1 (hRXFP1) HEK293 cAMP assay (HTRF)
# Type: cell-based
# Conditions: HEK293 cells stably expressing human RXFP1, 30 min at room temperature
# Procedure, shortened: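 HEK293 cells stably expressing human RXFP1 (1500 cells/well) in HBSS/20 mM HEPES/0.05% BSA/0.5 mM IBMX, treated with compound (0.010 nM–50 µM final, 2% DMSO) for 30 min at room temperature. Intracellular cAMP read by HTRF; potency from 4-parameter logistic fit of cAMP versus concentration.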
row,EC50 [µM],Molecule
1,0.0026,"COc1ncc(C2=NOC3CC(C(O)C(F)(F)F)CC23)cc1C(=O)N[C@H]1[C@@H](C(=O)Nc2ccc(F)c(C(F)(F)F)c2)[C@H]2CC[C@@H]1/C2=C\C1CCC1 (stereo partly drawn) [Example 122, N-((1R,2R,3S,4R,Z)-7-(cyclobutyl-methylene)-3-((4-fluoro-3-(trifluoromethyl)phenyl)carbamoyl)bicyclo[2.2.1]heptan-2-yl)-2-methoxy-5-(5-(2,2,2-trifluoro-1-hydroxyethyl)-3a,5,6,6a-tetrahydro-4H-cyclopenta[d]isoxazol-3-yl)nicotinamide]"
2,0.66,"COc1ccncc1C(=O)N[C@@H]1C2CCC(C2=C(C)C)[C@@H]1C(=O)Nc1ccc(F)c(C(F)(F)F)c1 (stereo partly drawn) [Example 2, N-[(2R,3S)-3-{[4-fluoro-3-(trifluoromethyl)phenyl]carbamoyl}-7-(propan-2-ylidene)bicyclo [2.2.1]heptan-2-yl]-4-methoxypyridine-3-carboxamide]"
3,0.16,"COc1cnc(C2=NOC3COCC23)cc1C(=O)N[C@H]1[C@@H](C(=O)Nc2ccc(F)c(C(F)(F)F)c2)[C@H]2CC[C@@H]1/C2=C\C1CC1 (single isomer, unassigned) [Example 72]"

# Continued, molecule first:
row,Molecule,EC50 [µM]
1,"COc1ncccc1C(=O)N[C@@H]1C2CCC(C2=C(C)C)[C@@H]1C(=O)Nc1ccc(F)c(C(F)(F)F)c1 (stereo partly drawn) [Example 8, N-[(2R,3S)-3-{[4-fluoro-3-(trifluoromethyl)phenyl]carbamoyl}-7-(propan-2-ylidene)bicyclo [2.2.1]heptan-2-yl]-2-methoxypyridine-3-carboxamide]",1.3
2,"O=C(NC1CCC1)O[C@@H](c1ccc(F)c(-c2cc(C(=O)N[C@@H]3C4CCC(/C4=C/C(F)(F)F)[C@@H]3C(=O)Nc3ccc(F)c(C(F)(F)F)c3)c(OCCO)cn2)c1)C(F)(F)F (stereo partly drawn) [Example 46, (1S)-2,2,2-trifluoro-1-[4-fluoro-3-(4-{[(2R,3S,7Z)-3-{[4-fluoro-3-(trifluoromethyl)phenyl]carbamoyl}-7-(2,2,2-trifluoroethylidene)bicyclo[2. 2.1]heptan-2-yl]carbamoyl}-5-(2-hydroxyethoxy)pyridin-2-yl)phenyl]ethyl N-cyclobutyl-carbamate]",0.065
3,"COc1ncc(C2=NOC3CC(CO)CC23)cc1C(=O)N[C@H]1[C@@H](C(=O)N[C@H](C)C2(C)CC(F)(F)C2)[C@H]2CC[C@@H]1/C2=C\C1CC1 (stereo partly drawn) [Example 140, N-((1R,2R,3S,4R,Z)-7-(cyclopropyl-methylene)-3-(((R)-1-(3,3-difluoro-1-methylcyclobutyl)ethyl)carbamoyl)bicyclo[2.2.1]heptan-2-yl)-5-(5-(hydroxymethyl)-3a,5,6,6a-tetrahydro-4H-cyclopenta[d]isoxazol-3-yl)-2-methoxynicotinamide]",0.0032

# System: not given
# Test: not given
# Conditions: intravenous (IV) formulation; cited from earlier work
row,Molecule,first-phase pharmacokinetic half-life [min]
1,Serelaxin,5.4
